Measurements taken from ChEMBL document CHEMBL3507680, “University of Dundee, Gates Library screen for HepG2 cell viability”.

assay: Human HepG2 cell viability assay in 384 well format; type: toxicity, cell-based; parameters: dose 125 nL, time 70.5 hour; concentration not given beside the values; details: HepG2 cells, read-out: Inhibition

Row | SMILES | cytotoxicity at 70.5 h
1 | CCC1C=CCN1C(=O)c1cc(COc2ccccc2OC)[nH]n1 (configuration not stated) | -11.7%
2 | CCCc1nc(C(=O)NC(COC)c2ccnn2C)cs1 (configuration not stated) | -10.8%
3 | CCOCCN1CCN(CC(=O)N2CCC2)CC1CC (configuration not stated) | -7.02%
4 | CNC(=O)C(C)(C)CNC(=O)Nc1ccc(C)cn1 | -3.94%
5 | Nc1nccc(C2CCCN2CCc2ccccc2)n1 (configuration not stated) | -1.57%
6 | CN1CCCCC12CCN(c1nncs1)C2 (configuration not stated) | -9.3%
7 | c1cncc(N2CCCn3nnc(CN4CCOCC4)c3C2)c1 | -5%
8 | COCCC(=O)N1CCC(Nc2ncc(Cl)cn2)CC1 | 0.73%
9 | CCN(CC)c1ccc(NS(=O)(=O)c2cnn(CC)c2)cn1 | 1.09%
10 | CC(C)c1cc(NC(=O)c2ccc(C(=O)NC(C)(C)C)cc2)[nH]n1 | -4.05%
11 | COCCN1CCN(Cc2cccc(C(=O)N(C)C)c2)CC1 | -4.26%
12 | Cc1c(C(=O)N(C)c2ccccc2)cccc1N(C)S(C)(=O)=O | -7.07%
13 | CN(C)c1ccc(C(=O)N2Cc3cnc(C(C)(C)C)nc3C2)cc1 | -2.91%
14 | Cc1cccc(SC2CCN(Cc3nc(CC4CC4)no3)CC2)c1 | 0.0623%
15 | CC(C)C(=O)N1CCc2onc(C(=O)NCCN(C)C)c2C1 | -5.11%
16 | COCC(=O)N1CCC2(CC1)CN(S(C)(=O)=O)Cc1ccccc1O2 | -0.505%
17 | CCn1ccnc1CN1CCN(c2nccc(OC)n2)CC1C (configuration not stated) | 18.6%
18 | CCC[C@H]1CN(S(=O)(=O)c2ccccc2)C[C@@H]1N | 16.4%
19 | CN(CC(=O)N1CCN(c2ccccn2)CC1)c1ccc(Cl)cn1 | -17.2%
20 | COc1ccc(C(O)C(=O)N2CCC(c3nccn3C(C)C)CC2)cc1 (configuration not stated) | 28.1%
21 | COCC1c2c(cnn2C)CCN1C(=O)c1cc(C)on1 (configuration not stated) | -0.669%
22 | CN(C)C(C(=O)NCC(F)(F)F)c1cccc(F)c1 (configuration not stated) | -2.03%
23 | CCc1ccccc1OCCN1C[C@@H](NS(C)(=O)=O)[C@H](C(C)C)C1 | -5.69%

Row | SMILES | cytotoxicity at 70.5 h
24 | O=C(C[C@@H]1COC[C@H]2CN(Cc3ccc(F)cc3)C[C@@H]12)N1CCCC1 | 2.93%
25 | Cc1nc(-c2ccc(CC(=O)N3CCNC(=O)C3)cc2)cs1 | 9.75%
26 | O=C(NC[C@H]1Cn2c(-c3ccccc3)cnc2CO1)C1CC1 | -7.19%
27 | CC(C)Oc1cccc(CN(C)C(=O)Nc2cccn(C)c2=O)c1 | 2.82%
28 | COc1cccc(CN2C[C@@H]3COC[C@]3(COc3cccnc3)C2)c1 | 3.66%
29 | CSC(C)C(=O)N(C)CCCc1cc(-c2ccccc2)no1 (configuration not stated) | 27.1%
30 | COCCc1noc(CN2CCCC2c2c(C)nn(C)c2Cl)n1 (configuration not stated) | -0.0583%
31 | CCC(C)(C)NC(=O)c1ccc(NC(=O)NCc2cc(C)no2)cc1 | -0.597%
32 | Cc1nnc(CN(C)CC(=O)N2CCCN(C3CCCC3)CC2)n1C | -6.96%
33 | Cn1cc(CN(Cc2ccccc2)CC(O)c2cccs2)cn1 (configuration not stated) | -8.92%
34 | COc1ccc(C(C)NCc2ccsc2)cc1Cn1cccn1 (configuration not stated) | -3.16%
35 | NC(=O)C1CCN(C(=O)c2ccccc2OCc2ccncc2)CC1 | -12.3%
36 | COCC1CN(C(=O)CS(C)(=O)=O)Cc2ncn(CC3CC3)c21 (configuration not stated) | 1.88%
37 | CC(C)CN1CCCn2nc(CNC(=O)CCCc3cn[nH]c3)cc2C1 | -9.85%
38 | CCN1C(=O)[C@]2(CC[C@@H]3CN(C(=O)NCC(C)C)C[C@@H]32)N=C1C | -2.72%
39 | CC(NC(=O)Cc1cccs1)c1nnc2n1CCCCC2 (configuration not stated) | -23.9%
40 | CNC(=O)CN1C(=O)CCC12CCCN(Cc1ccccc1F)C2 (configuration not stated) | 6.16%
41 | CC(C)N1CC(C(=O)NCc2ccnc(-n3cccn3)c2)CC1=O (configuration not stated) | -26.8%
42 | COc1cc2c(cc1CNC(=O)Cc1cc(C)[nH]n1)OC(C)C2 (configuration not stated) | 3.19%
43 | O=C(c1sccc1Br)N1CCOCC1 | -15.9%
44 | CCS(=O)(=O)N1C[C@@H](c2cc(O)nc(C)n2)[C@H](c2ccccc2F)C1 | 13.7%
45 | COCCO[C@@H]1C[C@H]2CN(C(=O)c3cnccn3)CCN2C1 | -6.2%
46 | O=C(c1ccc2c(c1)OCCCO2)N1CCCC(n2cccn2)C1 (configuration not stated) | 0.26%

Row | SMILES | cytotoxicity at 70.5 h
47 | O=C(CN1CCCC(Cn2cncn2)C1)NCCOc1ccccc1 (configuration not stated) | -2.13%
48 | OC1CCCN(Cc2c(-c3ccco3)[nH]c3ncccc23)C1 (configuration not stated) | -4.41%
49 | O=C(c1ccoc1)N1CCc2c(COCc3ccncc3)cncc2C1 | 8.95%
50 | O=C(NCCCn1nc2ccccn2c1=O)Nc1ccccc1 | 16.7%
51 | N#Cc1ccc(C(=O)NS(=O)(=O)c2ccc(F)c(F)c2)cc1 | 28.9%
52 | CCc1nc(CN2CCCN(Cc3nnc(C4CC4)o3)CC2)no1 | -5.98%
53 | Cc1nccn1C1CCCN(C(=O)CCOCC(F)(F)F)C1 (configuration not stated) | 17.2%
54 | Clc1ccc(-n2cnnc2CCCN2CCOCC2)cc1 | 1.11%
55 | Cc1cc(C)c2nc(CN3CCC(N4CCOC4=O)CC3)cc(O)c2c1 | 2.37%
56 | CC(NC(=O)Nc1nccs1)c1ccc(S(C)(=O)=O)cc1 (configuration not stated) | -18.5%
57 | CC(C(=O)NCc1ccnc(N2CCCC2)c1)n1cccn1 (configuration not stated) | -10.3%
58 | Cn1cc(N2C(=O)C[C@@H]3[C@@H]2CCN3C(=O)c2ccco2)cn1 | -6.04%
59 | CSc1nc2cc(C)n(CC(=O)NC(C)C)c2c(=O)n1CC(C)C | -4.16%
60 | CNC(=O)NC(=O)CN1CCN(CC(F)(F)F)CC1(C)C | -4.26%
61 | CSCCC(=O)N1CCC(c2nccn2CCN(C)C)CC1 | -2.46%
62 | CC1CCCN1C1CCN(C(=O)c2cccc(-c3ccoc3)c2)CC1 (configuration not stated) | 10.8%
63 | Cn1ncnc1NCc1ccc(Br)cc1 | -5.73%
64 | CCC1CN(C(=O)c2ccc(=O)[nH]c2)CCC(=O)N1Cc1ccccc1 (configuration not stated) | -2.4%
65 | COc1ccc([C@@H]2CN(Cc3cccnc3N)C[C@H]2N(C)C)cc1 | -2.88%
66 | COc1cccc(-c2noc(C3CCN(Cc4ccc(C)cc4)C3)n2)c1 (configuration not stated) | 23.2%
67 | Cn1ccnc1CN1CCN2C[C@H](Oc3ccccc3)C[C@H]2C1 | 11.2%
68 | CC(O)CN1CC2(CCC1=O)CCN(Cc1cc(F)ccc1Cl)CC2 (configuration not stated) | -2.56%
69 | Cc1nonc1CNC(=O)C(C)Oc1cccc(F)c1 (configuration not stated) | -8.47%

Row | SMILES | cytotoxicity at 70.5 h
70 | CN(C)C[C@@H]1CN(C2CCN(c3ccccc3Cl)CC2)C[C@@H]1CO | -14.4%
71 | Cc1nc(NC2CCN(S(=O)(=O)c3ccccc3)CC2)[nH]c(=O)c1C | -9.46%
72 | CCc1n[nH]c(C(=O)NCCn2nccc2C)c1C | -5.81%
73 | CCN1CC2(CC1=O)CN(Cc1ccc(C)o1)CCN(C(=O)C(C)C)C2 (configuration not stated) | -16.6%
74 | O=C1CC(c2ccc(F)cc2)c2snc(C(=O)O)c2N1 (configuration not stated) | -10.3%
75 | Cc1cc(C)n(CCCN(C)C(=O)C2COc3ccccc3C2)n1 (configuration not stated) | 26.5%
76 | Cc1nc(CNC(C)c2cccc(N3CCCC3=O)c2)cs1 (configuration not stated) | -7.67%
77 | Cc1cc(C(=O)N2CCCC(n3nc(C)cc3C)C2)on1 (configuration not stated) | -10.1%
78 | COc1cccc(C(=O)Oc2cc(=O)n3cccc(C)c3n2)c1 | -24.8%
79 | CC(C)CNC(=O)c1nnsc1-c1ccccc1 | -11.5%
80 | CN(Cc1cccc(O)c1)C(=O)Nc1cccnc1N1CCCC1 | 16.2%
81 | O=C(Nc1ccccc1)C1CN(CC2CCOCC2)CC12CCOCC2 (configuration not stated) | 9.8%
82 | CCc1ccc(NC(C(N)=O)c2ccc(F)cc2)cc1 (configuration not stated) | -5.1%
83 | Cc1c(CN2CCc3[nH]cnc3C2C2CC2)[nH]c2ccc(F)cc12 (configuration not stated) | 4.41%
84 | Cn1nnc2c(N3CC(C(=O)NCc4cccs4)C3)ncnc21 | -1.73%
85 | CC(C)n1cc(CN2CCCN(C(=O)c3nccnc3N)CC2)cn1 | 7.08%
86 | COC(=O)c1cccc(C2CNCCN2C(C)=O)c1 (configuration not stated) | 21.6%
87 | CN(C)C(C(=O)NC1(CO)CCCC1)c1ccc(F)cc1 (configuration not stated) | 6.65%
88 | CC(=O)N1CCCC1c1cc(N2CCN(CC(C)(C)C)CC2)cc(C)n1 (configuration not stated) | -7.87%
89 | O=C(O)CC1CN(S(=O)(=O)c2cccc(F)c2)c2ccccc21 (configuration not stated) | 22.7%
90 | COCC(=O)N1CCCCC1c1nc(CN(C)C(C)=O)cc(N(C)C)n1 (configuration not stated) | 50.7%
91 | O=C(c1cnc(-c2ccccc2)s1)N1CCC2(CC1)OCCO2 | 7.39%
92 | COCCN(C)C(=O)c1nc2c(s1)CCCN2c1ncccn1 | -3.25%

Row | SMILES | cytotoxicity at 70.5 h
93 | O=C(CCc1nc(-c2ccccc2)no1)N[C@H]1COC[C@@H]1N1CCCC1 | -9.03%
94 | CCCN1CCc2nc(SCc3ccccc3)[nH]c(=O)c2C1 | 8.44%
95 | Cc1nc2c(c(=O)[nH]1)CCN(C(=O)c1[nH]nc3c1CC(C)CC3)C2 (configuration not stated) | 2.4%
96 | C[S+]([O-])c1nncn1CCc1ccccc1 (configuration not stated) | 17.1%
97 | CC(C)OC(=O)CC(NC(=O)CCn1cccn1)c1ccccc1 (configuration not stated) | 5.59%
98 | CCc1nc(CN2CCCN(c3nn4cc(C)nc4s3)CC2)no1 | 23.9%
99 | O=C(C[C@@H]1COC[C@H]2CN(Cc3ccncc3)C[C@@H]12)N1CCOCC1 | -13.2%
100 | COc1ccc(CN2CCC(CO)(Cc3ccc(Cl)cc3)CC2)c(O)c1 | -11.2%
101 | Cc1[nH]nc2ncc(C(=O)N3CCN(CC(O)C(C)(C)C)CC3)cc12 (configuration not stated) | -1.93%
102 | CN(C)C(=O)Cn1c(C2CC2)c(CN2CCSCC2)c2cccnc21 | 1.03%
103 | Cc1cc(C2CCCN(C(=O)c3c(C)noc3C)C2)n[nH]1 (configuration not stated) | -5.28%
104 | O=C(Cn1nc(Br)nc1Br)N1CCOCC1 | 27.3%
105 | O=C1[C@@H]2CCN(CC3CC3)C[C@@H]2OCCN1c1ccsc1 | -2.56%
106 | Cc1cc(C(=O)N2CCC3(CCN3Cc3ccc(F)cc3)C2)no1 (configuration not stated) | -3.92%
107 | CC(=O)N1CCN(CC(C)(O)c2cccc(C(F)(F)F)c2)CC1 (configuration not stated) | -8.81%
108 | COCCNC(=O)[C@H]1C[C@@H]2CCN(CCc3ccccc3)C[C@@H]2O1 | -4.71%
109 | COCc1cc(O)nc(C2CCCN(Cc3ccc(OC)cc3)C2)n1 (configuration not stated) | -2.96%
110 | Cc1ccc(S(=O)(=O)NCCc2nnc[nH]2)c2cccnc12 | 15.2%
111 | CNC(=O)CN1CCC2(CC1)C[C@@H](O)[C@H](c1ccccc1)NC2=O | -4.55%
112 | CNC(=O)c1cc2c(nc1N(C)C)CCN(c1ncc(C)cn1)CC2 | -6.83%
